{
  "source": "patent US20160095837A1",
  "about": "“MODULATION OF MITOCHONDRIAL CALCIUM UNIPORTER ACTIVITY FOR TREATING AND PREVENTING ARRHYTHMIAS” (priority 2014, published 2016)",
  "key": {"[1]": {"tested_on": "Ca2+ uptake into mitochondria", "details": "in vitro; read-out: IC50, block of Ca2+ uptake into mitochondria in vitro; cited from earlier work"}, "HCN4 inward current (If)": {"tested_on": "HCN4 inward current (If)", "assay": "If current recording in SAN cells", "format": "cell-based, mouse", "details": "Ru360 dialysis", "description": "(§1) SAN cells were placed in Tyrode's solution at 36±0.5° C. and were identified by their characteristic morphology (spindle or spider shape) and spontaneous activity. SAN cells were identified electrophysiologically by spontaneous action potentials with a slow depolarizing phase 4 and the hyperpolarization-activated current (If).^27 Spontaneous action potentials, If and ICa were recorded using the perforated (amphotericin B or β-escin in studies requiring dialysis of Ru360 and/or ATP) patch-clamp technique^28 on single SAN cells at 36±0.5° C. in Tyrode's solution. Intracellular Ca^2+ transients were recorded from single SAN cells using Fura-2 AM excited at 340 nm and 380 nm and emitted and 510 nm. Endogenous NADH from single SAN cells was measured by excitation at 350 nm and recording emitted light at 460 nm.^29 Mitochondrial Ca^2+ was measured at 535 nm from mt-pericam expressing SAN cells exited at 415 nm^20. Mitochondrial Ca^2+ entry was measured in cell membrane permeabilized cardiomyocytes isolated from DN-MCU transgenic, wild type mice and from HEK293 cells using Calcium green-5N^30.\n(§2) Spontaneous action potentials (APs) and If were recorded using the perforated (amphotericin B or β-escin) patch-clamp technique^28 on single SAN cell at 36±0.5° C. in Tyrode's solution (0.5 mM BaCl2 was added to the bath solution when recording If^32). […]"}, "[2]": {"tested_on": "CaV1 L-type Ca2+ current (ICa)", "assay": "ICa current recording in SAN cells", "format": "cell-based, mouse", "details": "Ru360 dialysis", "description": "as §1, §2"}, "[3]": {"molecular_target": "T1, mitochondrial calcium uniporter (MCU) (Homo sapiens, UniProt Q8NE86)", "T1 construct": "We measured mitochondrial Ca^2+ uptake using permeabilized HEK cells; endogenous in cells; host or cells: HEK293 cells, saponin-permeabilized", "T1 sequence (Q8NE86 51-351)": "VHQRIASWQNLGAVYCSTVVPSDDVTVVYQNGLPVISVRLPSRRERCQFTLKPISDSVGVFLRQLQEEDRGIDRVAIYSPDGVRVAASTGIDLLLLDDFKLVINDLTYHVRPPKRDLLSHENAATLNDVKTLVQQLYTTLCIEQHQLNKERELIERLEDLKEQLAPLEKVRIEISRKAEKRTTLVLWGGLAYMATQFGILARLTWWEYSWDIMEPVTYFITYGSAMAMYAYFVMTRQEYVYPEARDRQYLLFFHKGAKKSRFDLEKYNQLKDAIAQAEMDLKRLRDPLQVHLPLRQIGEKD", "T1 sequence (Q9H4I9 48-107 partner limits assumed)": "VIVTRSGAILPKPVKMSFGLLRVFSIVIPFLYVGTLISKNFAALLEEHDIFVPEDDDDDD", "assay": "Calcium green mitochondrial Ca2+ uptake assay in permeabilized HEK cells", "format": "cell-based", "details": "Ru360 10 μM or DN-MCU adenovirus (FIG. 6)", "description": "as §1\nWe measured mitochondrial Ca^2+ uptake using permeabilized HEK cells as previously described^30,40. […] Fluorescence was measured using a Tecan plate reader. […] Fluorescence intensity was measured from 50,000 […]/well. […]"}, "[4]": {"tested_on": "Ca2+ uptake into mitochondria in intact myocytes", "details": "incubation with ~10 μM Ru360 for 30 min; cited from earlier work"}},
  "data": [
    {"substance": "(μ)[(HCO2)(NH3)4Ru]2OCl3) [Ru360]", "values": [
      {"measurement": "IC50", "setting": "[1]", "value": 0.184, "unit": "nM"},
      {"measurement": "If responses to ISO", "setting": "HCN4 inward current (If)", "value": "not reduced"},
      {"measurement": "ISO-induced ICa increases", "setting": "[2]", "value": "not impaired"},
      {"measurement": "Mitochondrial Ca2+ entry", "setting": "[3]", "value": "similarly effective at preventing"},
      {"measurement": "Block of Ca2+ uptake into mitochondria in intact myocytes", "setting": "[4]", "value": "completely blocks"}
    ]}
  ]
}
